# Assay results reported in patent publication US20200108070A2, “INHIBITORS OF FIBROBLAST GROWTH FACTOR RECEPTOR AND USE THEREOF” (Nanjing TransThera Biosciences Co. Ltd., priority 2016, published 2020).
# Columns and labels:
# Hep3B = assay: Cellular activity test (Cell titer-Glo), Hep3B; assay type: cell-based; conditions: Homo sapiens, hepatocellular carcinoma cell with abnormal FGFR, 72 h, read-out: Inhibitory activity against cells (IC50) Hep3B
# Excerpt: (§1) Experimental Example 2: Celluar Activity Test of the Compounds of the Present Invention
# (§2) Hep3B is a cell with abnormal FGFR in hepatocellular carcinoma RT112/84 is a cell with abnormal FGFR in bladder cancer DMS114 is a cell with abnormal FGFR in small cell lung cancer AN3CA is a cell with abnormal FGFR in endometrial cancer SNU-16 is a cell with abnormal FGFR in gastric cancer
# (§3) Test substance: The compounds of the present invention, the structures of which are shown above.
# (§4) Test instrument: The Espire multi-function microplate reader.
# (§5) Each cell line was seeded into a 96-well plate, and adherent cultured overnight. Then, the compounds at different concentrations (12 dose groups, 3× DMSO serial dilutions) were added to a final concentration of 0.17-30000 nM, with the final content of DMSO of 5‰. The negative control well was medium containing 5‰ DMSO. After incubation at 37° C., 5% CO2, 95% humidity for 72 h, the cultures would be test. 30 μL of Cell titer-Glo reagent was added to each well and incubated for 30 min at room temperature. The final data were read by Espire microplate reader.
# RT112/84 = assay: Cellular activity test (Cell titer-Glo), RT112/84; assay type: cell-based; conditions: Homo sapiens, RT112/84, bladder cancer cell with abnormal FGFR, 72 h, read-out: Inhibitory activity against cells (IC50) RT112/84
# Excerpt: as §1, §2, §3, §4, §5
# SNU-16 = assay: Cellular activity test (Cell titer-Glo), SNU-16; assay type: cell-based; conditions: Homo sapiens, SNU-16, gastric cancer cell with abnormal FGFR, 72 h, read-out: Inhibitory activity against cells (IC50) SNU-16
# Excerpt: as §1, §2, §3, §4, §5
# FGFR1 = FGFR1 (Homo sapiens, UniProt P11362); assay: Enzymatic activity test (LabChip EZ Reader II / Caliper), FGFR1; assay type: biochemical; conditions: FGFR1(h), FAM-labelled polypeptide substrate and ATP, 30 min incubation; read-out: Inhibitory activity against FGFR (IC50) FGFR1
# Protocol: (§6) Experimental Example 1: Enzymatic Activity Test of the Compounds of the Present Invention
# as §3
# (§7) Test Instrument: The LabChip EZ Reader II drug screening platform.
# (§8) 1. Preparation for compound plate a) 96-well plates, 10 dose groups, 3-fold serial dilutions, added DMSO to each well, maximal concentration of 500 μM. b) 384-well plates, diluted with 1× kinase buffer (50 mM HEPES, pH 7.5; 0.0015% Brij-35; 2 mM DTT), each well containing 5× compound dissolved in 5 μL of 10% DMSO. The negative control well was 5 μL of 1× kinase buffer containing 10% DMSO. 2. Experimental procedure
# (§9) […] in 1× kinase buffer were reacted with 2.5× enzyme solution at room temperature for 10 min, and then the FAM-labelled polypeptide substrate and ATP were added to initiate reaction. After incubation for 30 min, 25 μL of terminal solution (100 mM HEPES, pH 7.5; 0.015% Brij-35; 0.2% Coating Reagent #3; 50 mM EDTA) was added to terminate the reaction, and the final data were read by Caliper.
# FGFR4 = FGFR4 (Homo sapiens, UniProt P22455); assay: Enzymatic activity test (LabChip EZ Reader II / Caliper), FGFR4; assay type: biochemical; conditions: FGFR4(h), FAM-labelled polypeptide substrate and ATP, 30 min incubation; read-out: Inhibitory activity against FGFR (IC50) FGFR4
# Protocol: as §6, §3, §7, §8, §9
# DMS114 = assay: Cellular activity test (Cell titer-Glo), DMS114; assay type: cell-based; conditions: Homo sapiens, DMS-114, DMS114, small cell lung cancer cell with abnormal FGFR, 72 h, read-out: Inhibitory activity against cells (IC50) DMS114
# Excerpt: as §1, §2, §3, §4, §5
# AN3CA = assay: Cellular activity test (Cell titer-Glo), AN3CA; assay type: cell-based; conditions: Homo sapiens, AN3-CA, endometrial cancer cell with abnormal FGFR, 72 h, read-out: Inhibitory activity against cells (IC50) AN3CA
# Excerpt: as §1, §2, §3, §4, §5
# FGFR2 = FGFR2 (Homo sapiens, UniProt P21802); assay: Enzymatic activity test (LabChip EZ Reader II / Caliper), FGFR2; assay type: biochemical; conditions: FGFR2(h), FAM-labelled polypeptide substrate and ATP, 30 min incubation; read-out: Inhibitory activity against FGFR (IC50) FGFR2
# Protocol: as §6, §3, §7, §8, §9
# FGFR3 = FGFR3 (Homo sapiens, UniProt P22607); assay: Enzymatic activity test (LabChip EZ Reader II / Caliper), FGFR3; assay type: biochemical; conditions: FGFR3(h), FAM-labelled polypeptide substrate and ATP, 30 min incubation; read-out: Inhibitory activity against FGFR (IC50) FGFR3
# Protocol: as §6, §3, §7, §8, §9
# FGFR2, sequence (P21802 22-821): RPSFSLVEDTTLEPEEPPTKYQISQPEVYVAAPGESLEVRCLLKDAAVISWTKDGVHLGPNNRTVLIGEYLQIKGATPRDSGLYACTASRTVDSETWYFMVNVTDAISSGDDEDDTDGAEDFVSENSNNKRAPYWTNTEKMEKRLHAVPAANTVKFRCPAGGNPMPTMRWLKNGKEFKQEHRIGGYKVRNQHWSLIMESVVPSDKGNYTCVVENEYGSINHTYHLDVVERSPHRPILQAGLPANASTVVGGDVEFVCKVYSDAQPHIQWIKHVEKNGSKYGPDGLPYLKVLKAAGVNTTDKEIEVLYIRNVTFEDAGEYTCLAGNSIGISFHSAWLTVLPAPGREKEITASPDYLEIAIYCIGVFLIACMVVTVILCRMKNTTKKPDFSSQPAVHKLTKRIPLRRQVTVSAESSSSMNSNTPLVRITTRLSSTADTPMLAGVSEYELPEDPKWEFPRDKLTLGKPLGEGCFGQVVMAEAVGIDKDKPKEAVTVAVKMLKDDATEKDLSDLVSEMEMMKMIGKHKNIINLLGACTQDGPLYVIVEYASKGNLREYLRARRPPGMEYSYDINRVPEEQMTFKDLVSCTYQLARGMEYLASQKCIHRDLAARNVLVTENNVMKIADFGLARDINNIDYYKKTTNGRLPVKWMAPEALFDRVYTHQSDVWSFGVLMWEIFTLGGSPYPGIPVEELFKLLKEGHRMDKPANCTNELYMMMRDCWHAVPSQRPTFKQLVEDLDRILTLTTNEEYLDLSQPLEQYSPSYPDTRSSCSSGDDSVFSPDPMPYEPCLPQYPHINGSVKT
# FGFR4, sequence (P22455 22-802): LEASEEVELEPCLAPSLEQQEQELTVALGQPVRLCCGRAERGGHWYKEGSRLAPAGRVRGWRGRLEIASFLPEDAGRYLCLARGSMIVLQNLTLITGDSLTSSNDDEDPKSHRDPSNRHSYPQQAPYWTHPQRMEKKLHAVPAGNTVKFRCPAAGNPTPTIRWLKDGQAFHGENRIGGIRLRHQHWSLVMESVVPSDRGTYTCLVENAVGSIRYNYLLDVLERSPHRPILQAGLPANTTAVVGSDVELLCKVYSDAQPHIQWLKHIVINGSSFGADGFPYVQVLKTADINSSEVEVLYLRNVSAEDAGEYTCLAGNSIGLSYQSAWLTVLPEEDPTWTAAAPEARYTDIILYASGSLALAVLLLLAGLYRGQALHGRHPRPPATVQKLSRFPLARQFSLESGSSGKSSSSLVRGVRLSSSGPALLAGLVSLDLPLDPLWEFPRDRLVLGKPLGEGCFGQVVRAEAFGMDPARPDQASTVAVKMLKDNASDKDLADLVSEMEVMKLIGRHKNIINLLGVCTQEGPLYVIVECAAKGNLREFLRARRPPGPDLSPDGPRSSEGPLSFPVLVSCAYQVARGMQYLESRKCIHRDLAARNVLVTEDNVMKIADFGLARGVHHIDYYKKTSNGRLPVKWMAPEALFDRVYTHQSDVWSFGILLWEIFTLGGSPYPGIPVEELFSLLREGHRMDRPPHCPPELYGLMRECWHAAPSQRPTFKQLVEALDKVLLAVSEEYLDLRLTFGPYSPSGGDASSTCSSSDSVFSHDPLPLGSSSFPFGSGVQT
# FGFR3, sequence (P22607 23-806): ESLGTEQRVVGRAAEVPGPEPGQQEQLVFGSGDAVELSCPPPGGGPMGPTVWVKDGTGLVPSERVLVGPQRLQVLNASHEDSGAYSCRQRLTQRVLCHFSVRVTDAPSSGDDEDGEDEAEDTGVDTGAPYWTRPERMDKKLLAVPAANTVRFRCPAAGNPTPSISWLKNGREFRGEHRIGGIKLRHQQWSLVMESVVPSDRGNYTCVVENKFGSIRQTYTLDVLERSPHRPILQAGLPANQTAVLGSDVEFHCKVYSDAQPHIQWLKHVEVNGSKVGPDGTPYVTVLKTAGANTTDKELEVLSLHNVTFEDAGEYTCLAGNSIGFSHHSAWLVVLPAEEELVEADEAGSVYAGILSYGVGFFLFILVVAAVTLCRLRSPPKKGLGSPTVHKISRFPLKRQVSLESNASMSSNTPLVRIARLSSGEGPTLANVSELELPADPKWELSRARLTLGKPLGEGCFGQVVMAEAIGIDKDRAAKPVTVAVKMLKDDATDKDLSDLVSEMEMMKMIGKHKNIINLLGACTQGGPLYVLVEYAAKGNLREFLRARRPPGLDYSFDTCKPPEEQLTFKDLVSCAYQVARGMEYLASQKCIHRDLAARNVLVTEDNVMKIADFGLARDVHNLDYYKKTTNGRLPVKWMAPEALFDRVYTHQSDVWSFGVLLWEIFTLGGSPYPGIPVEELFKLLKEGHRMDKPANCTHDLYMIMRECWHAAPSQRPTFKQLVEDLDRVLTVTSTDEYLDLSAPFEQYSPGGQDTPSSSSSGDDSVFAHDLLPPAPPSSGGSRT
# FGFR1, sequence (P11362 22-822): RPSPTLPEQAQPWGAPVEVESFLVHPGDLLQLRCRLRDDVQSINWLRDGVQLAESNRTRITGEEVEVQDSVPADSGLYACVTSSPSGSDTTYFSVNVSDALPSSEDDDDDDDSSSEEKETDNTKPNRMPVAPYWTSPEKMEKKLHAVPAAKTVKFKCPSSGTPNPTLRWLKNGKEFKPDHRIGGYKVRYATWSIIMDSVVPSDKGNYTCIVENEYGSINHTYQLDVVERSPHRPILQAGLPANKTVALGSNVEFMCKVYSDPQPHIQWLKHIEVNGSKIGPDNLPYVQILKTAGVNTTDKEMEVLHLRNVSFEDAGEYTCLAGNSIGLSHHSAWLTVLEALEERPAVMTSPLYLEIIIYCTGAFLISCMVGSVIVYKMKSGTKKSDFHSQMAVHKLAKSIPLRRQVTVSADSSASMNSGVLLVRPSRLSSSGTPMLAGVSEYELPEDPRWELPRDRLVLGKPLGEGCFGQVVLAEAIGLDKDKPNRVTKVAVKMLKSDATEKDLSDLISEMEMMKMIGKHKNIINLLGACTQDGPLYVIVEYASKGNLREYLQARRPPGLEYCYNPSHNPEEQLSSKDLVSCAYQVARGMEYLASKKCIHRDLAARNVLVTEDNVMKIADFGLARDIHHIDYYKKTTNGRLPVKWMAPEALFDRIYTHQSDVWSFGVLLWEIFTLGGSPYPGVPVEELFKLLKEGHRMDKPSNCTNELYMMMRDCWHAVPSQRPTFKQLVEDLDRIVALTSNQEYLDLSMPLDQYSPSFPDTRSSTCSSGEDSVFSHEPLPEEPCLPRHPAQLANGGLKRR
SMILES,IC50 (Hep3B) [nM],IC50 (RT112/84) [nM],IC50 (SNU-16) [nM],IC50 (FGFR1) [nM],IC50 (FGFR4) [nM],IC50 (DMS114) [nM],IC50 (AN3CA) [nM],IC50 (FGFR2) [nM],IC50 (FGFR3) [nM]
"C=CC(=O)N1CC2(CC(Nc3ncc4cc(-c5c(Cl)c(OC)cc(OC)c5Cl)ccc4n3)C2)C1 [Compound 65, 1-(6-((6-(2,6-dichloro-3,5-dimethoxyphenyl)quinazolin-2-yl)amino)-2-azaspiro[3.3]heptan-2-yl)prop-2-en-1-one]",66,161,92,–,–,–,–,–,–
"C=CC(=O)N1C[C@@H](Nc2ncc3cc(-c4c(Cl)c(OC)cc(OC)c4Cl)ccc3n2)C[C@H]1C(C)(C)O (stereo in doubt) [Compound 31, 1-((2R,4R)-4-((6-(2,6-dichloro-3,5-dimethoxyphenyl)quinazolin-2-yl)amino)-2-(2-hydroxypropyl-2-yl)pyrrolidin-1-yl)prop-2-en-1-one]",46,70,–,3.7,103,25,117,–,–
C=CC(=O)N1C[C@@H](Nc2ncc3cc(-c4c(Cl)c(OC)cc(OC)c4Cl)ccc3n2)C[C@@H]1CO [Compound 23],26,50,22,–,–,31,86,–,–
"C=CC(=O)N1C[C@@H](Nc2ncc3cc(-c4c(Cl)c(OC)cc(OC)c4Cl)ccc3n2)C[C@H]1C [Compound 21, 1-((2R,4S)-4-((6-(2,6-dichloro-3,5-dimethoxyphenyl)quinazolin-2-yl)amino)-2-methylpyrrolidin-1-yl)propyl-2-en-1-one]",–,54,–,8,330,–,176,–,–
"C=CC(=O)N1C[C@@H](Nc2ncc3cc(-c4c(Cl)c(OC)cc(OC)c4Cl)ccc3n2)C[C@H]1CNS(C)(=O)=O [Compound 33, N-(((2S,4S)-1-acryloyl-4-((6-(2,6-dichloro-3,5-dimethoxyphenyl)quinazolin-2-yl)amino)pyrrolidin-2-yl)methyl)methanesulfonamide]",75.4,65,–,–,–,34,149,–,–
C=CC(=O)N1CC(Nc2ncc3cc(-c4c(Cl)c(OC)cc(OC)c4Cl)ccc3n2)c2ccccc21 (centres unmarked) [Compound 67],–,–,–,8,129,–,–,56,–
"C=CC(=O)N1C[C@@H](Nc2ncc3cc(-c4c(Cl)c(OC)cc(OC)c4Cl)ccc3n2)C[C@H]1CNC(C)=O [Compound 32, N-(((2S,4S)-1-acryloyl-4-((6-(2,6-dichloro-3,5-dimethoxyphenyl)quinazolin-2-yl)amino)pyrrolidin-2-yl)methyl)acetamide]",147,78,–,–,–,48,167,–,–
"C=CC(=O)N1C[C@@H](Nc2ncc3cc(-c4c(Cl)c(OC)cc(OC)c4Cl)ccc3n2)C[C@H]1CF [Compound 24, 1-((2S,4S)-4-((6-(2,6-dichloro-3,5-dimethoxyphenyl)quinazolin-2-yl)amino)-2-(fluoromethyl)pyrrolidin-1-yl)prop-2-en-1-one]",46,153,48,–,–,–,–,–,–
"C=CC(=O)N1C[C@@H](Nc2ncc3cc(-c4c(Cl)c(OC)cc(OC)c4Cl)ccc3n2)C[C@H]1C(=O)N1CCCC1 [Compound 55, 1-((2S,4S)-4-((6-(2,6-dichloro-3,5-dimethoxyphenyl)quinazolin-2-yl)amino)-2-(pyrrolidin-1-carbonyl)pyrrolidin-1-yl)prop-2-en-1-one]",–,54,–,–,–,21,66,–,–
"C=CC(=O)N1C[C@@H](Nc2ncc3cc(-c4c(Cl)c(OC)cc(OC)c4Cl)ccc3n2)C[C@H]1CO [Compound 22, 1-((2S,4S)-4-((6-(2,6-dichloro-3,5-dimethoxyphenyl)quinazolin-2-yl)amino)-2-(hydroxymethyl)pyrrolidin-1-yl)prop-2-en-1-one]",32.2,40,11,4.6,101,25,59,4.4,19
"C=CC(=O)N1CC[C@H](Nc2ncc3cc(-c4c(Cl)c(OC)cc(OC)c4Cl)ccc3n2)C1 [Compound 5, (S)-1-(3-((6-(2,6-dichloro-3,5-dimethoxyphenyl)quinazolin-2-yl)amino)pyrrolidin-1-yl)propyl-2-en-1-one]",153,56,–,5.4,175,58,–,5.5,18
C=CC(=O)N1C[C@H](O)[C@H](Nc2ncc3cc(-c4c(Cl)c(OC)cc(OC)c4Cl)ccc3n2)C1 [Compound 46],–,–,–,5.8,–,–,–,8.2,22
C=CC(=O)N1C[C@@H](CC)[C@H](Nc2ncc3cc(-c4c(Cl)c(OC)cc(OC)c4Cl)ccc3n2)C1 [Compound 48],–,–,–,17,–,–,–,25,75
"C=CC(=O)N1C[C@@H](Nc2ncc3cc(-c4c(Cl)c(OC)cc(OC)c4Cl)ccc3n2)C[C@H]1C(=O)N1CCC1 [Compound 35, 1-((2S,4S)-2-(azetidine-1-carbonyl)-4-((6-(2,6-dichloro-3,5-dimethoxyphenyl)quinazolin-2-yl)amino)pyrrolidin-1-yl)prop-2-en-1-one]",95,60,–,–,–,52,112,–,–
"C=CC(=O)N1C[C@@H](C)[C@H](Nc2ncc3cc(-c4c(Cl)c(OC)cc(OC)c4Cl)ccc3n2)C1 [Compound 20, 1-((3S,4R)-3-((6-(2,6-dichloro-3,5-dimethoxyphenyl)quinazolin-2-yl)amino)-4-methylpyrrolidin-1-yl)propyl-2-en-1-one]",50.2,77,–,15,68,113,–,15,34
